± gives the expanded uncertainty stated by the source.

The series is described as follows: refractive index (Na D-line) (dimensionless). The following applies: 293.1 K; 101.33 kPa; Liquid; Standard Abbe refractometry.
For `Cc1cccc(C)c1` [1,3-dimethylbenzene], the refractive index came to 1.4943 ± 0.0007.
The value for `c1ccccc1` [benzene] was 1.5024 ± 0.0007.
The value for `O=CN1CCOCC1` [N-formylmorpholine] was 1.484 ± 0.0007; that for `CCCCCCC` [heptane] was 1.3882 ± 0.0007.
The value for `Cc1ccccc1` [toluene] was 1.4873 ± 0.0007.

Usually refractive index stands for the speed of light in vacuum divided by its phase velocity in the sample.
